According to patent US4654342A, “6-(cyanoguanidinophenyl)pyridazinones as cardiac stimulants” (Smith Kline & French Laboratories Ltd., priority 1984, dated 1987):

Legend:
[1] = test system: hindquarters perfusion pressure; test: Vasodilator activity, anaesthetised cat hindquarters autoperfused at constant blood flow; type: in vivo; conditions: Felis catus; anaesthetised cat, constant blood flow; read-out: dose to decrease hindquarters perfusion pressure (vasodilatation) by 15%
Description: The compounds of Examples 3, 4, 5 and 8 were tested in autoperfused anaesthetised cat hindquarters (autoperfused at constant blood flow). The doses to decrease hindquarters perfusion pressure (vasodilatation) by 15% are given below: […]

right ventricular strips = test: Cardiac stimulant activity in vitro, guinea pig ventricular strips (force of contraction); conditions: Cavia porcellus; for EC50: 50% increase in force of contraction, guinea pig ventricular strips, read-out: EC50 × 10^-6 M
Description: The compounds of formula (I) and their pharmaceutically acceptable salts are tested for cardiac stimulant activity following a procedure based on that of S. C. Verma and J. H. McNeill (J.Pharm & Exp. Therapeutics, 200, 352-362 (1977)). Guinea pigs (500-700 g) of either sex are sacrificed and the hearts are quickly removed and transferred to a dissecting dish containing oxygenated bathing fluid. While in the bathing medium, the right ventricle is cut into two strips. The strips are each suspended in a 50 ml bath containing Krebs Henseleit solution at 37° C., and the bath is bubbled with 95% oxygen and 5% carbon dioxide. The ventricular strips are electrically stimulated at a frequency of 1.0 Hz, at double the threshold voltage. A resting tension of 1.0 g is applied to the strips and the tension is kept constant by readjustment during an equilibration period of 60 minutes. The bathing fluid is frequently changed during this period. When a steady base line is obtained, a compound under test is added to the bathing fluid and a cumulative concentration response curve is plotted. The compounds for use in the present invention which were tested gave a 50% increase in the force of contraction of the ventricular strips at concentrations in the bathing fluid of less than 10^-4 molar, thus showing that they have activity as positive inotropic agents.

[2] = test system: left ventricular dp/dt max; test: Cardiac stimulant activity in vivo, anaesthetised cats (left ventricular dp/dt max); set-up: species or system cat; key to Relative Duration: ***: long; **: medium; *: short; conditions: for ED50: Felis catus, intravenous, dose to increase left ventricular dp/dt max by 50%, anaesthetised cats; for Relative Duration: estimated in anaesthetised cats following i.v. administration
Description: The dose to increase left ventricular dp/dt max by 50% is given as the ED50.

[3] = test system: left ventricular dp/dt max; test: Cardiac stimulant activity in vivo, conscious dogs (left ventricular dp/dt max); set-up: species or system dog
Description: Oral administration caused positive inotropic responses at doses of 0.25 mg/kg and below. […] Therefore this compound is particularly beneficial with regard to `force-rate` selectivity.

SMILES | ED15 [1] [mg/kg] | EC50 (right ventricular strips) [nM] | ED50 [2] [µmol/kg] | Relative Duration [2] | activation at 31.6 µM (right ventricular strips; at 31.6 × 10^-6 M, read-out: increase in force of contraction (printed in EC50 column)) [%] | activity relative to compound of Example 1 [3] | duration relative to compound of Example 1 [3]
CCCCNC(=NC#N)Nc1ccc(C2=NNC(=O)CC2C)cc1 (stereo not drawn) [Example 5, 6-[4-(N^3 -Butyl-N^2-cyanoguanidino)phenyl]-5-methyl-4,5-dihydro-3(2H)-pyridazinone] | 0.13 | 8500 | 0.31 | ** | – | – | –
CC1CC(=O)NN=C1c1ccc(NC(N)=NC#N)cc1 (stereo not drawn) [Example 6, 6-[4-(N^2 -Cyanoguanidino)phenyl]-5-methyl-4,5-dihydro-3(2H)-pyridazinone] | – | 1400 | 0.7 | *** | – | – | –
CCNC(=NC#N)Nc1ccc(C2=NNC(=O)CC2C)cc1 (stereo not drawn) [Example 3, 6-[4-(N^3 -Ethyl-N^2-cyanoguanidino)phenyl]-5-methyl-4,5-dihydro-3(2H)-pyridazinone] | 0.044 | 1400 | 0.2 | *** | – | – | –
CC(C)NC(=NC#N)Nc1ccc(C2=NNC(=O)CC2C)cc1 (stereo not drawn) [Example 4, 6-[4-(N^3 -Isopropyl-N^2-cyanoguanidino)phenyl]-5-methyl-4,5-dihydro-3(2H)-pyridazinone] | 0.082 | 800 | 0.2 | ** | – | – | –
CNC(=NC#N)Nc1ccc(C2=NNC(=O)CC2)cc1 [Example 8, 6-[4-(N^3 -Methyl-N^2-cyanoguanidino)phenyl]-4,5-dihydro3(2H)-pyridazinone] | 1 | – | 1.6 | ** | 40 | – | –
Nc1cc(-c2ccncc2)c[nH]c1=O [Amrinone, reference compound] | – | 15000 | 5.6 | * | – | less active | of shorter duration
